Source: patent US20250302846A1, “ANTIBIOTIC COMPOSITION AND METHODS OF USE THEREOF” (THE REGENTS OF THE UNIVERSITY OF COLORADO A BODY CORPORATE, priority 2022, published 2025)
In brackets after ≈: the same amount, converted by molar mass. Read-outs that look alike come from different tables or passages of the source.

Tests used:
[1] = test system: S. Typhimurium SL1344 or 14028 in RAW 264.7 cells; assay: CFU assay in infected RAW 264.7 macrophages; type: cell-based; conditions: for IC50: Salmonella enterica, TYPHIMURIUM
Method: (§1) FIG. 1A-D. D66 is a small molecule that prevents S. Typhimurium replication and/or survival in macrophages. A). Structure of D66. B) RAW264.7 macrophage-like cells were infected with S. Typhimurium harboring a chromosomal sifB: : gfp reporter, treated with DMSO or D66 at two hours after infection, and monitored for bacterial accumulation (GFP+Macrophage Area) over 16 hours using the SAFIRE (Screen for Anti-infectives using Fluorescence microscopy of Intracellular Enterobacteriaceae) assay. The IC50 value is indicated. Mean and SD of biological duplicates with technical duplicates across 9 dilutions of D66. C, D) CFU assays were performed with RAW264.7 or HeLa cells infected with S. Typhimurium SL1344 or 14028 for two hours and treated for 16 hours with DMSO or 1.5-fold dilutions of D66, prior to lysis and plating for CFU. Symbols on the Y-axes are the CFU value from DMSO-treated samples. The IC50 values are indicated. Mean and SEMs of biological triplicates with technical duplicates across 8 dilutions of D66.
(§2) CFU assays were performed with RAW 264.7 cells seeded as above or with Hela cells (ATCC CCL-2) seeded at 1x10^4 cells per 96-well. Cells were infected as described above with either S. Typhimurium SL1344 or 14028, as indicated at an approximate MOI of 30 bacteria per RAW 264.7 cell and 150 bacteria per HeLa cell. Plates were centrifuged and gentamicin treated as above. At 18 hours after infection, wells were washed twice with PBS and lysed with 30 μL 0.1% Triton X-100 in PBS for five minutes. Lysed cells were plated to L-agar and enumerated for CFU.

[2] = test system: S. Typhimurium SL1344 or 14028 in HeLa cells; assay: CFU assay in infected HeLa cells; type: cell-based
Method: as §1
as §2, with “At 18 hours after infection, wells were washed twice with PBS and lysed with 30 μL 0.1% Triton X-100 in PBS for five minutes. Lysed cells were plated to L-agar and enumerated for CFU.” left out

[3] = Murine pharmacokinetic analysis; type: in vivo, C57BL/6 mice; conditions: mice, 50 mg/kg IP
Method: FIG. 7A-B. D66 pharmacokinetic parameters. Values were calculated by compartmental modeling using Phoenix WinNonlin. Data fit a two-compartment model (r=0.9976) with bolus dosing. A) Decay curve. B) Parameter values.
Murine pharmacokinetic analyses and infections: Three female C57BL/6 mice were injected intraperitoneally (IP) with 50 mg/kg of D66 formulated in DMSO (50 μL). […] Three mice were initially dosed and observed for 24 hours to determine tolerability. […] Plasma D66 levels were measured using a liquid chromatography coupled to tandem mass spectrometry (LC/MS/MS) assay by the University of Colorado Cancer Center Drug Discovery and Development Shared Resource. The assay used monitored the transition of D66 (376 m/z->176 m/z) and was linear from 1-1000 ng/ml with an accuracy and precision of 90.3%+10.4% (% CV) based on quality control (QC) samples included with analyzed unknown samples.

Bacillus subtilis = assay: Growth inhibition in broth (MIC95); type: cell-based
Method: FIG. 8A-B. D66 inhibits the growth of Gram-positive bacteria in broth. A) Dose response curves monitoring staphylococcal and B. subtills growth in the presence of D66 from an OD600 of 0.01, normalized to growth in 2% DMSO after 18 hours. Mean and SEM of at least three biological replicates performed with technical triplicates. B) Table of D66 concentrations that inhibit growth. For comparison, S. Typhimurium is included.
A) D66 quenches the fluorescent dye DiSC3 (5) in a dose-dependent manner. Data were normalized to DMSO at time 0. Relative fluorescent units (RFU). Mean and SEM of three biological replicates performed with technical triplicates. B, C) Mid-log phase S. aureus (FDA209) in LB were treated at time 0 with DMSO, gramicidin [2 μg/mL], or D66 (1x MIC95=130 μM). B) Fold change in RFU. Data are normalized to DMSO at time 0. C) Data normalized to account for the quenching effect of D66 on DiSC3 (5) observed in A. Mean and SEM of three biological replicates performed with technical triplicates. D) Bacillus subtilis expressing mNeonGreen-FtsZ at stationary phase in LB were placed on agar pads containing D66 at the indicated concentration (1x MIC95=89 μM). Confocal microscope images were taken after 15 minutes to ascertain whether D66 disrupted the septal localization of FtsZ.

S. aureus FDA209 [4] = assay: Growth curves and kill curves of mid-log phase S. aureus; type: cell-based
Method: FIG. 9A-B. D66 is bactericidal to mid-log phase S. aureus. A) Growth curves and B) kill-curves. Mid-log phase cultures of S. aureus FDA209 were treated at time 0 with either DMSO or the indicated concentration of D66 (1x MIC95=130 μM). Cultures were monitored for OD600 and plated for enumeration of colony forming units (CFU). Data are presented as fold change. Mean and SEM of three biological replicates performed with technical triplicates.

S. aureus FDA209 [5] = assay: Membrane permeability by PI fluorescence; type: cell-based; conditions: mid-log S. aureus FDA209
Method: Mid-log phase S. aureus FDA209 cells were used for all experiments. A) Membrane fluidity was evaluated with a Laurdan generalized polarization (GP) assay. Cells were exposed at time 0 to DMSO, benzyl alcohol (BnOH, a membrane fluidizer [50 mM]), or D66 (1x MIC95=130 μM). Mean and SEM of three biological replicates performed with technical triplicates. B) Membrane permeability was monitored by PI fluorescence. Cells were exposed at time 0 to DMSO, SDS [0.3%], or D66. Samples were processed at the timepoints shown. Mean and SEM of three biological replicates performed with technical triplicates. C) Intracellular pH was monitored with the fluorescent probe BCECF-AM. Cells were exposed at time 0 to DMSO, the protonophore CCCP [100 μM], or D66. Mean and SEM of three biological replicates performed with technical triplicates. D) Intracellular ATP levels measured using the Promega BacTiter-Glo kit after 30 minutes of treatment with DMSO, chloramphenicol (Chlor), or D66. Mean and SEM of three biological replicates performed with technical triplicates. E) Respiration rates of cells incubated with resazurin and treated at time 0 as indicated. Mean and […]

For `O=C(Nc1cc(Cl)cc(Cl)c1)N1CCCN(Cc2ccccc2)CC1` [D66], the IC50 ([1]; RAW264.7, 16 h, S. Typhimurium 14028 in macrophages, treated 16 hours, read-out: CFU IC50) was 4.9 µM, the IC50 ([1]; RAW264.7, 16 h, S. Typhimurium SL1344 in macrophages, treated 16 hours, read-out: CFU IC50) was 7.7 µM and the IC50 ([1]; RAW264.7, as quoted for dose selection, read-out: IC50 of D66 against S. Typhimurium in macrophages) was about 7.8 µM. The CFU reduction ([1]; macrophages) was over 1000 fold, the “ability to reduce bacterial load in Hela cells” value [2] was “little effect” and the “reduction in CFU” value [2] was 5-10 fold. The half-life ([3]; female, C57BL/6, mouse, plasma, two-compartment model, read-out: elimination (terminal) half-life (converted)) was 3 h, the peak serum concentration [3] was 3.5 µM and the “steady state volume of distribution (Vss)” value [3] was 43.3 L/kg. The “elimination (terminal) half-life” value ([3]; two-compartment model, 50 mg/kg) was 3.0 h, the MIC (Bacillus subtilis) was 89 µM (≈ 33.7 µg/mL) and the “killing of mid-log phase S. aureus” value (S. aureus FDA209 [4]) was “bactericidal”. The “cell membrane rupture (PI permeability)” value (S. aureus FDA209 [5]) was “does not rupture the cell membrane”.
